In patent publication US20240368173A1, “TRICYCLIC GPR65 MODULATORS” (PATHIOS THERAPEUTICS LIMITED, priority 2021, published 2024):
pIC50: −log10 of the molar value. Read-outs that look alike come from different tables or passages of the source.

Target: human recombinant GPR65 (Homo sapiens, UniProt Q8IYL9)
Assay: Human GPR65 cAMP HTRF antagonist assay
Type: cell-based
Outline: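 1321N1 astrocytoma cells stably expressing hrGPR65, with IBMX and EDTA, were preincubated with compound 30 min at room temperature, then acid-activated at assay pH 7.2 (control pH 7.9) for 30 min. cAMP read by HTRF (665/620 nm ratio); IC50 from 4-parameter fit normalised to high/low controls.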

Sequence of human recombinant GPR65 (Q8IYL9 whole entry): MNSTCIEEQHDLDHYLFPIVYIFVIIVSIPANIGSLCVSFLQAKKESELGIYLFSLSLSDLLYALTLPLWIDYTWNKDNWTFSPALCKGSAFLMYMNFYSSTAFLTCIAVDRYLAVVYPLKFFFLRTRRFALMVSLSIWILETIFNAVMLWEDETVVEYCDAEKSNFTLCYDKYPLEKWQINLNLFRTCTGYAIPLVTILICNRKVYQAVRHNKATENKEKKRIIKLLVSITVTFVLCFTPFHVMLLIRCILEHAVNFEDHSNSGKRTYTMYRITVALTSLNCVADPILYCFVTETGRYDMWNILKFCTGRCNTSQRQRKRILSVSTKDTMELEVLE

Row | SMILES | pIC50 | pIC50 (1321N1-hrGPR65 cells, cAMP HTRF, assay pH 7.2, read-out: hGPR65 IC50 (Activity of selected compounds according to the invention))
1 | Cc1nc2ccc(-c3cc(F)c(NC(=O)N4[C@H]5CC[C@@H]4c4ccnc(F)c4C5)cc3Cl)cc2o1 [Compound 205, (5R,8S)-N-(5-Chloro-2-fluoro-4-(2-methylbenzo[d]oxazol-6-yl)phenyl)-1-fluoro-6,7,8,9-tetrahydro-5H-5,8-epiminocyclohepta[c]pyridine-10-carboxamide] | > 6.30 | 
2 | O=C(Nc1cc(Cl)c(C(F)(F)F)cc1F)N1C2CCC1c1n[nH]c(=O)cc1C2 (racemic) [Compound 1, (±)—N-(5-chloro-2-fluoro-4-(trifluoromethyl)phenyl)-3-oxo-3,5,6,7,8,9-hexahydro-2H-6,9-epiminocyclohepta[c]pyridazine-10-carboxamide] | > 6.30 | 
3 | O=C(Nc1cc(Cl)c(-c2ccc(OC3CCC3)nc2)cc1F)N1[C@H]2CC[C@@H]1c1c[nH]c(=O)cc1C2 [Compound 239, (6S,9R)-N-(5-Chloro-4-(6-cyclobutoxypyridin-3-yl)-2-fluorophenyl)-3-oxo-3,5,6,7,8,9-hexahydro-2H-6,9-epiminocyclohepta[c]pyridine-10-carboxamide] | > 6.30 | 
4 | O=C(Nc1cc(Cl)c(-c2ccc(F)nc2)cn1)N1[C@H]2CC[C@@H]1c1n[nH]c(=O)cc1C2 [Compound 230, (6S,9R)-N-(4-Chloro-6′-fluoro-[3,3′-bipyridin]-6-yl)-3-oxo-3,5,6,7,8,9-hexahydro-2H-6,9-epiminocyclohepta[c]pyridazine-10-carboxamide] | > 6.30 | 
5 | Cc1nc2cc(-c3cc(F)c(NC(=O)N4[C@H]5CC[C@@H]4c4ccnc(F)c4C5)cc3Cl)ccc2o1 [Compound 233, (5R,8S)-N-(5-Chloro-2-fluoro-4-(2-methylbenzo[d]oxazol-5-yl)phenyl)-1-fluoro-6,7,8,9-tetrahydro-5H-5,8-epiminocyclohepta[c]pyridine-10-carboxamide] | > 6.30 | 
6 | COc1cnccc1-c1cc(F)c(NC(=O)N2[C@H]3CC[C@@H]2c2ccnc(F)c2C3)cc1Cl [Compound 297, (5R,8S)-N-(5-Chloro-2-fluoro-4-(3-methoxypyridin-4-yl)phenyl)-1-fluoro-6,7,8,9-tetrahydro-5H-5,8-epiminocyclohepta[c]pyridine-10-carboxamide] | > 6.30 | 
7 | O=C(Nc1cc(Cl)c(F)cc1F)N1C2CCC1c1n[nH]c(=O)cc1C2 (racemic) [Compound 52, (±)-N-(5-Chloro-2,4-difluorophenyl)-3-oxo-3,5,6,7,8,9-hexahydro-2H-6,9-epiminocyclohepta[c]pyridazine-10-carboxamide] | > 6.30 | 
8 | O=C(Nc1ccc(-c2ccsc2)cc1)N1[C@H]2CC[C@@H]1c1ccnc(F)c1C2 [Compound 55, (5R,8S)-1-Fluoro-N-(4-(thiophen-3-yl)phenyl)-6,7,8,9-tetrahydro-5H-5,8-epiminocyclohepta[c]pyridine-10-carboxamide] | > 6.30 | 
9 | O=C(Nc1cc(Cl)c(C2CC2)cc1F)N1[C@H]2CC[C@@H]1c1c[nH]c(=O)cc1C2 [Compound 82, (6S,9R)-N-(5-Chloro-4-cyclopropyl-2-fluorophenyl)-3-oxo-3,5,6,7,8,9-hexahydro-2H-6,9-epiminocyclohepta[c]pyridine-10-carboxamide] | > 6.30 | 
10 | COc1ncc(-c2cc(F)c(NC(=O)N3[C@H]4CC[C@@H]3c3n[nH]c(=O)cc3C4)cc2Cl)cc1F [Compound 207, (6S,9R)-N-(5-Chloro-2-fluoro-4-(5-fluoro-6-methoxypyridin-3-yl)phenyl)-3-oxo-3,5,6,7,8,9-hexahydro-2H-6,9-epiminocyclohepta[c]pyridazine-10-carboxamide] | > 6.30 | 
11 | O=C(Nc1cc(Cl)c(-c2ccc3nsnc3c2)cc1F)N1[C@H]2CC[C@@H]1c1ccnc(F)c1C2 [Compound 177, (5R,8S)-N-(4-(benzo[c][1,2,5]thiadiazol-5-yl)-5-chloro-2-fluorophenyl)-1-fluoro-6,7,8,9-tetrahydro-5H-5,8-epiminocyclohepta[c]pyridine-10-carboxamide] | > 6.30 | 
12 | O=C(Nc1cc(Cl)c(-c2cc(F)c3nonc3c2)cc1F)N1[C@H]2CC[C@@H]1c1n[nH]c(=O)cc1C2 [Compound 323, (6S,9R)-N-(5-Chloro-2-fluoro-4-(7-fluorobenzo[c][1,2,5]oxadiazol-5-yl)phenyl)-3-oxo-3,5,6,7,8,9-hexahydro-2H-6,9-epiminocyclohepta[c]pyridazine-10-carboxamide] | > 6.30 | 
13 | O=C(Nc1cc(Cl)c(-c2ccc(OCCF)nc2)cc1F)N1[C@H]2CC[C@@H]1c1n[nH]c(=O)cc1C2 [Compound 291, (6S,9R)-N-(5-Chloro-2-fluoro-4-(6-(2-fluoroethoxy)pyridin-3-yl)phenyl)-3-oxo-3,5,6,7,8,9-hexahydro-2H-6,9-epiminocyclohepta[c]pyridazine-10-carboxamide] | > 6.30 | 
14 | O=C(Nc1cc(Cl)c(-c2cnc3nonc3c2)cc1F)N1[C@H]2CC[C@@H]1c1c[nH]c(=O)cc1C2 [Compound 189, (6S,9R)-N-(4-([1,2,5]oxadiazolo[3,4-b]pyridin-6-yl)-5-chloro-2-fluorophenyl)-3-oxo-3,5,6,7,8,9-hexahydro-2H-6,9-epiminocyclohepta[c]pyridine-10-carboxamide] | > 6.30 | 
15 | O=C(Nc1cc(Cl)c(-c2cnc(F)c(F)c2)cc1F)N1[C@H]2CC[C@@H]1c1n[nH]c(=O)cc1C2 [Compound 279, (6S,9R)-N-(5-Chloro-4-(5,6-difluoropyridin-3-yl)-2-fluorophenyl)-3-oxo-3,5,6,7,8,9-hexahydro-2H-6,9-epiminocyclohepta[c]pyridazine-10-carboxamide] | > 6.30 | 
16 | O=C(Nc1cc(Cl)c(-c2ccc(OCC(F)(F)F)nc2)cc1F)N1[C@H]2CC[C@@H]1c1n[nH]c(=O)cc1C2 [Compound 215, (6S,9R)-N-(5-Chloro-2-fluoro-4-(6-(2,2,2-trifluoroethoxy)pyridin-3-yl)phenyl)-3-oxo-3,5,6,7,8,9-hexahydro-2H-6,9-epiminocyclohepta[c]pyridazine-10-carboxamide] | > 6.30 | 
17 | COCCOc1cnc(F)c2c1[C@H]1CC[C@@H](C2)N1C(=O)Nc1cc(Cl)c(Cl)cc1F [Compound 283, (5R,8S)—N-(4,5-Dichloro-2-fluorophenyl)-1-fluoro-4-(2-methoxyethoxy)-6,7,8,9-tetrahydro-5H-5,8-epiminocyclohepta[c]pyridine-10-carboxamide] |  | 5.30 to 6.30
18 | COc1cncc(-c2cc(F)c(NC(=O)N3[C@H]4CC[C@@H]3c3ccnc(F)c3C4)cc2Cl)c1 [Compound 248, (5R,8S)-N-(5-Chloro-2-fluoro-4-(5-methoxypyridin-3-yl)phenyl)-1-fluoro-6,7,8,9-tetrahydro-5H-5,8-epiminocyclohepta[c]pyridine-10-carboxamide] | > 6.30 | 
19 | Cc1cnccc1-c1cc(F)c(NC(=O)N2[C@H]3CC[C@@H]2c2n[nH]c(=O)cc2C3)cc1Cl [Compound 125, (6S,9R)-N-(5-Chloro-2-fluoro-4-(3-methylpyridin-4-yl)phenyl)-3-oxo-3,5,6,7,8,9-hexahydro-2H-6,9-epiminocyclohepta[c]pyridazine-10-carboxamide] | > 6.30 | 
20 | O=C(Nc1ccc(OC(F)(F)F)c(Cl)c1)N1[C@H]2CC[C@@H]1c1n[nH]c(=O)cc1C2 [Compound 46, (6S,9R)-N-(3-Chloro-4-(trifluoromethoxy)phenyl)-3-oxo-3,5,6,7,8,9-hexahydro-2H-6,9-epiminocyclohepta[c]pyridazine-10-carboxamide] | > 6.30 | 
